Measured values from ChEMBL document CHEMBL1149004, “Ficulinic acid A and B, two novel cytotoxic straight-chain acids from the sponge Ficulina ficus” (1986).
In brackets after ≈: the same amount, converted by molar mass. Activity calls are given as the source filed them. The calls are words filed in the database; no cut-off is given here.

What was measured:
[1] = test system: Walker 256; assay: Growth inhibition of rat Walker 256 cells; format: functional, cell-based
[2] = test system: L1210; assay: Cytotoxicity against mouse L1210 cells assessed as inhibition of DNA synthesis by [3H]thymidine incorporation assay; format: functional; conditions: read-out: ID50 (the source's name)

## CCCCC/C=C\CCC(=O)CCCCCCO
[1]
  Activity: Active

## CCCCCCC/C=C/C(=O)CCCCCCCCCC(CCCCCCC)C(=O)O (stereo not drawn) [FICULINIC ACID B]
[2]
  IC50: 12 µg/mL (≈ 27.5 µM)

## CCCCCCC/C=C/C(=O)CCCCCCCC(CCCCCCC)C(=O)O (stereo not drawn) [FICULINIC ACID A]
[2]
  IC50: 10 µg/mL (≈ 24.5 µM)
